Common to all, as to experiment: radiometric filter-binding kinase assay, Kinaseprofiler
Assay [1] deals with TGFBR1 (human), P36897 [T204D]. As to conditions: ATP 10 µM.
The test system of assay [2] is HIPK2 (human), Q9H2X6 [I471N]. As to conditions: ATP 10 µM.
Assay [3] concerns PRKD1 (human), Q15139 [R135A]. The following applies: ATP 45 µM.
Assay [4] concerns PAK2 (human), Q13177 [L150F, P225T, V383I; A339 del]. As to conditions: ATP 90 µM.
The subject of assay [5] is FLT4 (human), P35916 [V1128L/H1146R]. As to conditions: ATP 200 µM.
Assay [6] relates to MET (human), P08581 [A1209G/V1290L]. The following applies: ATP 45 µM.
Assay [7] deals with BLK (human), P51451 [M278V]. As to conditions: ATP 45 µM.
Chain of BLK (human), P51451 [M278V] (P51451 whole entry, looked up, stated change not applied): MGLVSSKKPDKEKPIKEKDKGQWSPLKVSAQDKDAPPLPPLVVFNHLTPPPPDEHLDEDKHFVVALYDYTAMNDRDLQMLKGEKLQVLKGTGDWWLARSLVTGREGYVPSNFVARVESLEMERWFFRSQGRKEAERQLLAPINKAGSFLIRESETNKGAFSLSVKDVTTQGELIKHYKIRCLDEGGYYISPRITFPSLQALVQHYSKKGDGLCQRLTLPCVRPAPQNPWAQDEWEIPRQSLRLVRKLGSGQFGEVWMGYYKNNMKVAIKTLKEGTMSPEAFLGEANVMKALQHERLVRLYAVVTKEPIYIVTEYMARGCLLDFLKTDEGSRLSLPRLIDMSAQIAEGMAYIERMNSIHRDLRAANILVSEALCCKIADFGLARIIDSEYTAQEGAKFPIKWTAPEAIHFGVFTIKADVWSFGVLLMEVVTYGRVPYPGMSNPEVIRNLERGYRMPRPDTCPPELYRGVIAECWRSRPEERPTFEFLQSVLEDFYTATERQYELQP

Molecules are shown by their SMILES.

Chain of FLT4 (human), P35916 [V1128L/H1146R] (P35916 whole entry, looked up, stated change not applied): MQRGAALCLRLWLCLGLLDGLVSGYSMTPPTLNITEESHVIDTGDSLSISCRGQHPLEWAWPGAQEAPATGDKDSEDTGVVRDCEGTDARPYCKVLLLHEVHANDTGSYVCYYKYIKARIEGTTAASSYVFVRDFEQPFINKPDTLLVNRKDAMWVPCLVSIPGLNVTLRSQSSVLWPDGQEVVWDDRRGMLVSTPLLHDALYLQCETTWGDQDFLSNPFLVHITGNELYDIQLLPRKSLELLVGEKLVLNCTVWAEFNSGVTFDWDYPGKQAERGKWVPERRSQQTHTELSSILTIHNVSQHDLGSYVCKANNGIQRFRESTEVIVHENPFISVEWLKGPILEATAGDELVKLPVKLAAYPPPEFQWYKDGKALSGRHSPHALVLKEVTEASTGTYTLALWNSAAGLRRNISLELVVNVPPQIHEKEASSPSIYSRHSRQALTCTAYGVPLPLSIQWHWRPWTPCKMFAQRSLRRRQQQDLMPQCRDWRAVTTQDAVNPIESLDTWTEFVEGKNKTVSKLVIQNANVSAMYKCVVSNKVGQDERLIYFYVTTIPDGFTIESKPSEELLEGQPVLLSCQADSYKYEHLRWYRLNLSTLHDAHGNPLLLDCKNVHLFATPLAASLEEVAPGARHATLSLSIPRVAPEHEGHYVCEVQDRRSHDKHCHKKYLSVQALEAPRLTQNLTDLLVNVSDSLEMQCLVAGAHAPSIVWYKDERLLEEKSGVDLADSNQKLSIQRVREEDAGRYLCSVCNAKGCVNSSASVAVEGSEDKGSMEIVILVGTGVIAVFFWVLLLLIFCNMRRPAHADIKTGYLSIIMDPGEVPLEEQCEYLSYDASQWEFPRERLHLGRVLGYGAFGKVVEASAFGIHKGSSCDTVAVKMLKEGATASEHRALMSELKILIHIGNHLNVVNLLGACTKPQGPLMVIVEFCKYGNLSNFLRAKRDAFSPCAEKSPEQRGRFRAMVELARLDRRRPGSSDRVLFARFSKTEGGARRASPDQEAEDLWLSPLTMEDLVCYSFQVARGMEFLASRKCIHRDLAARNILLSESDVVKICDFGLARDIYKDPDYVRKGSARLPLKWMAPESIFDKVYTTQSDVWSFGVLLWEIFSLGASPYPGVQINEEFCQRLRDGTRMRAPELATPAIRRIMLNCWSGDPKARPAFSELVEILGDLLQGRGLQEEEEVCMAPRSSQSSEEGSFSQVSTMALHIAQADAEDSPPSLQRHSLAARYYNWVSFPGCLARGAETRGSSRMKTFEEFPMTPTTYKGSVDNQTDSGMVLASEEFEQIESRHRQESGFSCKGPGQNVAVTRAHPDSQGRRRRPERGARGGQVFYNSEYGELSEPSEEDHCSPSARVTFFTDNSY
Chain of HIPK2 (human), Q9H2X6 [I471N] (Q9H2X6 whole entry, looked up, stated change not applied): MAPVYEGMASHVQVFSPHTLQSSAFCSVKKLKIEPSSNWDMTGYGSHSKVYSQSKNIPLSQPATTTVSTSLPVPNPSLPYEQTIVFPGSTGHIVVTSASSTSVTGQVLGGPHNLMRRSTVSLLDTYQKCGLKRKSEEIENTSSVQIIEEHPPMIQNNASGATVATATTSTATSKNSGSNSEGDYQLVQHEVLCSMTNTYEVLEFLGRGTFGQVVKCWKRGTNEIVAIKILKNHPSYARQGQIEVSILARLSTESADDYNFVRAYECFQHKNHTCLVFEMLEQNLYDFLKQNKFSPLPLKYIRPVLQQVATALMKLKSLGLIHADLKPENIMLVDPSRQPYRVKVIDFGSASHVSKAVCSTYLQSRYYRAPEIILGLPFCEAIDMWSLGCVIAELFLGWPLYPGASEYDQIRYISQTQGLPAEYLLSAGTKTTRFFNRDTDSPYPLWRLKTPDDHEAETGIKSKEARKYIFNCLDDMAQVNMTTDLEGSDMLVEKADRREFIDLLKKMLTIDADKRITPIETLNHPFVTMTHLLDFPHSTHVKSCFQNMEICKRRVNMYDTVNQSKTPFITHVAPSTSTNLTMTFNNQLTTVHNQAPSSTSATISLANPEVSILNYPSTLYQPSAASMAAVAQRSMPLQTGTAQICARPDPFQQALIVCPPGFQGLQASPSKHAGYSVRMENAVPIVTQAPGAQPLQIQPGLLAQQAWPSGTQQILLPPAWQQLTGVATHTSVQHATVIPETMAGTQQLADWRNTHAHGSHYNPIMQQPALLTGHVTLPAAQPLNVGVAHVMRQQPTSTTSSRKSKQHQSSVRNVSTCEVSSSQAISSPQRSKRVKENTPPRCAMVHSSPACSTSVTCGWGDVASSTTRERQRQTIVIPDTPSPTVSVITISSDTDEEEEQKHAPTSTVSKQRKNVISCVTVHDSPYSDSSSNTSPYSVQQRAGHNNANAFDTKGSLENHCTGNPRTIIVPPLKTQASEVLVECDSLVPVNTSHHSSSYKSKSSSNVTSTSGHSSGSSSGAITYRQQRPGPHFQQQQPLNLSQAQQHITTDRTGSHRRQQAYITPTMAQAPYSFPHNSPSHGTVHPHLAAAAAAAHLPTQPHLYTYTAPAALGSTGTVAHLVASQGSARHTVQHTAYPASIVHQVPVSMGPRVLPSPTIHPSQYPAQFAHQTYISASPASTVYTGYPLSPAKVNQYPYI
Chain of PAK2 (human), Q13177 [L150F, P225T, V383I; A339 del] (Q13177 whole entry, looked up, stated change not applied): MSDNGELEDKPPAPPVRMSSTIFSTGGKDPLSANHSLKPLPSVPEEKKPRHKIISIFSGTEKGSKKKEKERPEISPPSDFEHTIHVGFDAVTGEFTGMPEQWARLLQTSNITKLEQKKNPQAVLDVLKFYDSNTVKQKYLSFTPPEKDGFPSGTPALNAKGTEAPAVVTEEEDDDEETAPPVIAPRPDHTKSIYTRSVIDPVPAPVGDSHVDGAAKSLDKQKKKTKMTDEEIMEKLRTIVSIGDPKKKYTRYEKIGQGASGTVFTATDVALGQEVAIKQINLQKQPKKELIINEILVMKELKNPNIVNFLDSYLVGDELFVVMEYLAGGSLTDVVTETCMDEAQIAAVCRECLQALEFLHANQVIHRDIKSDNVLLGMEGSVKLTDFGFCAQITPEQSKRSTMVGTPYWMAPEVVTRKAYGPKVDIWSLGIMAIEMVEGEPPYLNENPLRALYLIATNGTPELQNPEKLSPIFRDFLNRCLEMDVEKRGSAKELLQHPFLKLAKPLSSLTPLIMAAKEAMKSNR
Chain of PRKD1 (human), Q15139 [R135A] (Q15139 whole entry, looked up, stated change not applied): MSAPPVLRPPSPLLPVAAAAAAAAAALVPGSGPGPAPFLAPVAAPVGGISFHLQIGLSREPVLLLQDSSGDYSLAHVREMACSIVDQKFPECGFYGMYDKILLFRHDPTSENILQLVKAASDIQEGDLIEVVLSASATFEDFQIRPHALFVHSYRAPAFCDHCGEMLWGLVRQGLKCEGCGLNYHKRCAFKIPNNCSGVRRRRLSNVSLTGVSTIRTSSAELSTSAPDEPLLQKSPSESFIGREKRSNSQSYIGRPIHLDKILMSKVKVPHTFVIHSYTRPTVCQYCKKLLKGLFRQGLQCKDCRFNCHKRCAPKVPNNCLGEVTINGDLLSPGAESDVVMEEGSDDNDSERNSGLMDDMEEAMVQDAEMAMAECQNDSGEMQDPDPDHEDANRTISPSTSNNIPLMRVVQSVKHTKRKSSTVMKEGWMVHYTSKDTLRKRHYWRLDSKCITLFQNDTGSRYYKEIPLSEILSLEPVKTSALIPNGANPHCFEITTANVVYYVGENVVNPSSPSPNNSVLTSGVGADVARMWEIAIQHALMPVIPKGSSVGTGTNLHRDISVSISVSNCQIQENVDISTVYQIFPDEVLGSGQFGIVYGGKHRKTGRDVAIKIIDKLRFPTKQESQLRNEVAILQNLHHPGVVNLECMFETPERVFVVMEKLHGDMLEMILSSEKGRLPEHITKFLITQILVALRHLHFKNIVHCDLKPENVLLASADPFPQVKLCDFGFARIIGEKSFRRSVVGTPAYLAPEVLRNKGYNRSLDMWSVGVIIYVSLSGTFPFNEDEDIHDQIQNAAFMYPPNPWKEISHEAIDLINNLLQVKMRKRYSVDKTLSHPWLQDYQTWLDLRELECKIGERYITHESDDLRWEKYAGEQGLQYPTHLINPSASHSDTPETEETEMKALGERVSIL
Chain of TGFBR1 (human), P36897 [T204D] (P36897 whole entry T204D, looked up): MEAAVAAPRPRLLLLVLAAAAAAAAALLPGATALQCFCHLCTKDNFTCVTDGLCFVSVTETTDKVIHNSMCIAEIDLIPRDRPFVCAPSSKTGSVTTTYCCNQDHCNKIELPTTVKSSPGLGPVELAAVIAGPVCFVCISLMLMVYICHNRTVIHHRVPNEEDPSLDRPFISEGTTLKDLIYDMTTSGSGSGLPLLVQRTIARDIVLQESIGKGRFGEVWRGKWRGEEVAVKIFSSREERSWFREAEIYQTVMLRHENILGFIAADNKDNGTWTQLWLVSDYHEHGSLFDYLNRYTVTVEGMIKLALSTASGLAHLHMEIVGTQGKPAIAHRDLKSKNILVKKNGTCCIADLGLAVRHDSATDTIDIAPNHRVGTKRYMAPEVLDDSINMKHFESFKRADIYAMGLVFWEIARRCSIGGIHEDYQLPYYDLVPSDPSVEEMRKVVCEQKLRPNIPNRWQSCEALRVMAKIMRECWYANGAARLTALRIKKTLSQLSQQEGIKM

For the compound `O=C1Nc2ccccc2/C1=C1\Nc2ccccc2\C1=N/O`, the residual activity was 104% in assay [1] (compound 1.0 µM); 73% in assay [1] (compound 10.0 µM); 48% in assay [2] (compound 1.0 µM); 8% in assay [2] (compound 10.0 µM); 113% in assay [3] (compound 1.0 µM); 65% in assay [3] (compound 10.0 µM). Further, the residual activity in assay [4] (compound 1.0 µM) was 103%; in assay [4] (compound 10.0 µM), 54%; in assay [5] (compound 1.0 µM), -1%; in assay [5] (compound 10.0 µM) it was 1%; in assay [6] (compound 1.0 µM), 86%; in assay [6] (compound 10.0 µM), 13%. The residual activity in assay [7] (compound 1.0 µM) stood at 11%; in assay [7] (compound 10.0 µM), 0%.

Regarding `O=C(Nc1cccc(Nc2nccc(Nc3cccc(C(F)(F)F)c3)n2)c1)C1CC1`, the residual activity in assay [4] (compound 1.0 µM) stood at 100%.

Turning to `CN[C@@H]1C[C@H]2O[C@@](C)([C@@H]1OC)n1c3ccccc3c3c4c(c5c6ccccc6n2c5c31)C(=O)NC4`, the residual activity in assay [2] (compound 1.0 µM) was 52%.

In the case of `O=C1c2ccccc2-c2n[nH]c3cccc1c23`, the residual activity was 88% in assay [1] (compound 1.0 µM); 74% in assay [1] (compound 10.0 µM); 55% in assay [2] (compound 1.0 µM); 15% in assay [2] (compound 10.0 µM); 32% in assay [3] (compound 1.0 µM); -1% in assay [3] (compound 10.0 µM). The residual activity is 96% in assay [4] (compound 1.0 µM); 86% in assay [4] (compound 10.0 µM); 2% in assay [5] (compound 1.0 µM); 0% in assay [5] (compound 10.0 µM); 87% in assay [6] (compound 1.0 µM); 75% in assay [6] (compound 10.0 µM). Further, the figures for the residual activity in assay [7] (compound 1.0 µM) and in assay [7] (compound 10.0 µM) were 97% and 45%, respectively.

The record behind these values is the kinase profiling compilation of Christmann-Franck et al. (2016).
